From patent US6706733B2, “Quinolinone derivative formulation and its production method” (Dainippon Ink and Chemicals, Inc., priority 1999, dated 2004)

Experiments:
[1] = Absorption test in rats (plasma concentration after oral administration); type: in vivo, male SD rats; settings: for Cmax (maximum plasma concentration): 100 mg/kg single oral administration by gastric tube, suspended in 0.5% aqueous methyl cellulose, plasma by HPLC; for Cmax (maximum plasma concentration) / AUC (area under the plasma concentration vs. time curve): fasted male SD rats; for AUC (area under the plasma concentration vs. time curve): 100 mg/kg single oral administration, trapezoidal equation plus elimination rate constant; for absorption as compared with the α-form crystals: rats, oral 100 mg/kg, regardless of whether crushed or not
Method: A comparison of absorption into bodies of rats was conducted for each of the crystal forms and their crushed products of the quinolinone derivative represented with chemical formula (I). Furthermore, each of the crystal forms of the quinolinone derivative represented with chemical formula (I) were crushed using an automated agate mortar.
The following provides an explanation of the test method.
100 mg/kg of each sample were administered orally in a single administration using a gastric tube to 3 male SD rats (age 6 weeks) fasted for 16 hours. The samples were administered after suspending in 0.5% aqueous methyl cellulose solution and preparing to a concentration of […]. Following administration, blood samples were collected over time from the tail vein using heparin-treated glass tubes, and the quinolinone derivative concentrations of the resulting plasma were assayed by HPLC.
The maximum Plasma concentration (Cmax) and area under the plasma concentration vs. time curve (AUC) were determined from the assayed values of the quinolinone derivative at each blood sampling time.
Furthermore, Cmax was determined using measured values, while AUC was determined by calculating according to a trapezoidal equation until the time of measurement, and using the elimination rate constant after that time. The Cmax and AUC of each crystal form of the quinolinone derivative represented with chemical formula (I) are described as comparative examples.

[2] = Photostability test (6 months under direct sunlight, HPLC content); type: physicochemical; settings: room temperature; for stability with respect to light compared among crystal forms: 6 months direct sunlight; for Residual rate of quinolinone derivative: transparent sealed container, nitrogen, direct sunlight
Method: 0.5 g of each of the crystal forms of the quinolinone derivative represented with chemical formula (I) were filled into a transparent and sealed container in a nitrogen atmosphere, and were stored for 6 months under direct sunlight at room temperature.
The content of each crystal form of the quinolinone derivative represented with chemical formula (I) was assayed over time by HPLC followed by a comparison of stability.

[3] = storage period 0 days (100% prior to storage)

| Cmax (maximum plasma concentration) [1] | AUC (area under the plasma concentration vs. time curve) [1] | stability with respect to light compared among crystal forms [2] | Residual rate of quinolinone derivative [2, 3] | Residual rate of quinolinone derivative ([2]; storage period 1 month) | Residual rate of quinolinone derivative ([2]; storage period 6 months) | Residual rate of quinolinone derivative ([2]; storage period 15 days) | absorption as compared with the α-form crystals [1] | SMILES |
| --- | --- | --- | --- | --- | --- | --- | --- | --- |
| 33000 ng/mL | 253 µg·h/mL | – | – | – | – | – | – | CCCCCCCCOc1c(O)c2ccc(NC(=O)/C=C/c3cc(OC)c(O)c(OC)c3)cc2n(C)c1=O [Crushed α-form crystals] |
| 38000 ng/mL | 325 µg·h/mL | relatively stable | 100% | 96.5% | 84.1% | 98.9% | superior absorption | CCCCCCCCOc1c(O)c2ccc(NC(=O)/C=C/c3cc(OC)c(O)c(OC)c3)cc2n(C)c1=O [γ-form crystals] |
| 65000 ng/mL | 575 µg·h/mL | – | – | – | – | – | – | CCCCCCCCOc1c(O)c2ccc(NC(=O)/C=C/c3cc(OC)c(O)c(OC)c3)cc2n(C)c1=O [Crushed γ-form crystals] |
| 63000 ng/mL | 597 µg·h/mL | – | – | – | – | – | – | CCCCCCCCOc1c(O)c2ccc(NC(=O)/C=C/c3cc(OC)c(O)c(OC)c3)cc2n(C)c1=O [Crushed δ-form crystals] |
| 10000 ng/mL | 73 µg·h/mL | relatively stable | 100% | 97.2% | 85.1% | 99.1% | – | CCCCCCCCOc1c(O)c2ccc(NC(=O)/C=C/c3cc(OC)c(O)c(OC)c3)cc2n(C)c1=O [α-form crystals] |
| 41000 ng/mL | 375 µg·h/mL | relatively stable | 100% | 96.8% | 84.5% | 98.7% | superior absorption | CCCCCCCCOc1c(O)c2ccc(NC(=O)/C=C/c3cc(OC)c(O)c(OC)c3)cc2n(C)c1=O [β-form crystals] |
| 51000 ng/mL | 512 µg·h/mL | extremely unstable | 100% | 91.4% | 57.3% | 96.2% | superior absorption | CCCCCCCCOc1c(O)c2ccc(NC(=O)/C=C/c3cc(OC)c(O)c(OC)c3)cc2n(C)c1=O [δ-form crystals] |
| 67000 ng/mL | 586 µg·h/mL | – | – | – | – | – | – | CCCCCCCCOc1c(O)c2ccc(NC(=O)/C=C/c3cc(OC)c(O)c(OC)c3)cc2n(C)c1=O [Crushed β-form crystals] |
